Results: publication PMC9481026 (PLoS ONE, 2022)
Values after ≈ are worked out from the molar mass of the structure shown. Values joined by “and” are separate entries in the source; they are usually repeats but may differ in a detail not shown here. Equal entries are not always repeated. Where two headings read alike, the source gives them in different places.

Legend:
[1] = test system: RVFV MP-12; experiment: microbe, parasite or virus in culture; type: cell-based, Rift Valley fever virus; settings: read-out: Estimated EC50
[2] = test system: Vero cells
[3] = test system: C. neoformans; experiment: microbe, parasite or virus in culture; type: cell-based; settings: for MIC80: Cryptococcus neoformans, read-out: C. neoformans (MIC80, μM)
[4] = test system: E. coli; experiment: microbe, parasite or virus in culture; type: cell-based; settings: for MIC80: Escherichia coli, read-out: E. coli (MIC80, μM)
[5] = test system: HepDES19
[6] = test system: Staphylo-coccus spp.; experiment: organism not typed; type: cell-based; settings: for MIC80: read-out: Staphylo-coccus spp. (MIC80, μM)
[7] = biological target: T1, Human RNase H1 (Homo sapiens, UniProt O60930); experiment: biochemical
T1 construct: made in house; host or cells: E. coli
T1 sequence (O60930 1-286): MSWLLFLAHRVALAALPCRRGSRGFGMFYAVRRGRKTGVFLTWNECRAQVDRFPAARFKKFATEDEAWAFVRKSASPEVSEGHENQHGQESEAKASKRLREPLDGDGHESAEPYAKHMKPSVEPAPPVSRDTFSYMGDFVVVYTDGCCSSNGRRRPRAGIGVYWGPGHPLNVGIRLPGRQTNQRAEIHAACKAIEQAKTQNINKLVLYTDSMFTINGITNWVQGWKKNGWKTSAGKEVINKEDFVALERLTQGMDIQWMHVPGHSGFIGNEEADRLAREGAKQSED

[8] = test system: RVFV strain MP-12; experiment: microbe, parasite or virus in culture; type: cell-based, Rift Valley fever virus
[9] = test system: LACV; experiment: microbe, parasite or virus in culture; type: cell-based, La Crosse virus; settings: for EC50: read-out: LACV EC50
[10] = test system: ZIKV; experiment: microbe, parasite or virus in culture; type: cell-based, Zika virus; settings: for EC50: read-out: ZIKV EC50
[11] = test system: A549 cells
[12] = test system: RVFV strain MP-12; experiment: microbe, parasite or virus in culture; type: cell-based, Rift Valley fever virus; settings: read-out: A549 EC50
[13] = in vitro; settings: human
[14] = in vitro; settings: African green monkey
[15] = test system: RVFV ZH501; experiment: microbe, parasite or virus in culture; type: cell-based, Rift Valley fever virus
[16] = in vitro; settings: human; remark: listed apart in the source
[17] = read-out: Human RNase H1 (IC50)
[18] = Rift Valley fever virus, Vero, 24 h
[19] = Rift Valley fever virus, Vero, read-out: RVFV (EC50, μM)
[20] = La Crosse virus, Vero C1008, 24 h
[21] = Rift Valley fever virus, Vero, read-out: Vero EC50
[22] = Rift Valley fever virus, A549, 24 h

Row | Structure (SMILES) | EC50 [1] | CC50 [2] | C. neoformans (MIC80, μM) [3] | CC50 [5] | Staphylo-coccus spp. (MIC80, μM) [6] | IC50 [7, 17] | EC50 [9] | EC50 ([8]; read-out: EC50) | EC50 ([8]; read-out: Vero EC50) | EC50 [10] | CC50 [11] | EC50 [12] | EC50 ([1]; Rift Valley fever virus, Vero) | MIC80 [3] | EC50 [8, 18] | CC50 ([14]; CC50) | other results
1 | Cc1cc(O)c(=O)c(O)cc1C(=O)NCc1ccccc1 [Compound 388] | 19 µM | > 120 µM | 11 µM | 19.8 µM | 67 µM | 166 µM | – | – | – | – | – | – | – | – | – | – | E. coli (MIC80, μM) [4]: 67 µM; EC50 ([8]; read-out: RVFV (EC50)): 9 µM
2 | CCc1cccc(N=C(C)c2c(C)cc(=O)n(O)c2O)c1 [Compound 518] | 7 µM | > 120 µM | 24 µM | 91.4 µM | 67 µM | 436 µM | > 120 µM | 19.5 µM | 20 µM | > 120 µM | 16.5 µM | 17.2 µM | – | – | – | – | –
3 | CC(C)Sc1ccc(SC(C)C)c(O)c(=O)c1O [Compound 696] | – | – | – | – | – | – | – | – | – | – | – | – | 12 µM | 1.5 µM (≈ 0.43 µg/mL) | 6 µM | – | MIC80 [4]: 20 µM (≈ 5.73 µg/mL); MIC80 [6]: 13 µM (≈ 3.72 µg/mL); CC50 [13]: 14.1 µM
4 | CC(=O)c1c(C)cc(O)c(=O)c(O)c1Br [Compound 320] | 2 µM | > 120 µM | 49 µM | 49.5 µM | – | 37 µM | > 120 µM | 34 µM | 34 µM | > 120 µM | 154 µM | 90.3 µM | – | – | – | – | –
5 | CC(C)c1ccc(O)c(=O)c(O)c1 [Compound 46, β-thujaplicinol, reference compound] | – | – | – | – | – | – | – | – | – | – | – | – | – | 8 µM (≈ 1.44 µg/mL) | – | – | CC50 ([14]; CC50 Vero): > 120 µM; MIC80 [4]: 44 µM (≈ 7.93 µg/mL); MIC80 [6]: 20 µM (≈ 3.6 µg/mL); EC50 [8, 19]: 13.8 µM
6 | Cc1cc(O)c(=O)c(O)c(O)c1C(=O)c1ccc(-c2ccccc2)cc1 [Compound 362] | – | – | – | – | – | – | – | – | – | – | – | – | 6 µM | 24 µM (≈ 8.36 µg/mL) | 2.5 µM | 80 µM | CC50 ([2]; African green monkey): 77.8 µM; IC50 [7]: 212 µM; EC50 [8, 19]: 2.6 µM; CC50 [13]: 5.4 µM
7 | O=c1c(O)cccc(SCCc2ccccc2)c1O [Compound 704] | 14 µM | > 120 µM | 1.8 µM | 21.6 µM | 20 µM | 25 µM | 89.2 µM | 14.3 µM | 14.3 µM | 19.5 µM | 43 µM | 20 µM | – | – | – | – | –
8 | CC(=Nc1ccc(C(F)(F)F)cc1)c1c(C)cc(=O)n(O)c1O [Compound 517] | 13 µM | > 120 µM | 24 µM | 91 µM | – | 135 µM | > 120 µM | – | > 120 µM | > 120 µM | 71.8 µM | 95.8 µM | – | – | – | – | –
9 | Cc1cc(O)c(=O)c(O)cc1C(=O)Nc1ccccc1 [Compound 389] | 16 µM | > 120 µM | 3.5 µM | 26.5 µM | 44 µM | 309 µM | – | – | – | – | – | – | – | – | – | – | E. coli (MIC80, μM) [4]: 44 µM; EC50 ([8]; read-out: RVFV (EC50)): 8.8 µM
10 | CCCCCCSc1cccc(O)c(=O)c1O [Compound 840] | 14 µM | > 120 µM | 1.0 µM | 21.5 µM | – | 73 µM | > 120 µM | 31.6 µM | 31.6 µM | > 120 µM | 142 µM | 15.4 µM | – | – | – | – | –
11 | Cc1cc(O)c(=O)c(O)cc1C(=O)c1ccccc1O [Compound 359] | – | – | – | – | – | – | – | – | – | – | – | – | 4 µM | 24 µM (≈ 6.53 µg/mL) | 5.1 µM | > 120 µM | IC50 [7]: 65 µM; CC50 [13]: 19.4 µM
12 | O=c1nc(NO)ccn1[C@@H]1O[C@H](CO)[C@@H](O)[C@H]1O [EIDD-1931, β-D-N4-Hydroxycytidine, reference compound] | 5 µM | > 120 µM | – | – | – | – | 3.6 µM | 5.16 µM and 5.2 µM | – | 1.7 µM and 1.74 µM | – | – | – | – | – | – | EC50 ([15]; read-out: EC50): 30.5 µM
13 | O=c1c(O)cccc(S(=O)(=O)c2cccc3ccccc23)c1O [Compound 698] | 8 µM | – | 38 µM | 13.7 µM | 20 µM | 261 µM | – | 11.7 µM | – | – | – | – | – | – | – | – | E. coli (MIC80, μM) [4]: 44 µM
14 | CCCCSc1ccc(SCCCC)c(O)c(=O)c1O [Compound 694] | – | – | – | – | – | – | – | – | – | – | – | – | 5.62 µM | 2.3 µM (≈ 0.723 µg/mL) | 3.7 µM | > 120 µM | CC50 ([2]; African green monkey): 22.1 µM; MIC80 [6]: 9 µM (≈ 2.83 µg/mL); CC50 [13]: 1.8 µM
15 | CC(=O)c1c(C)cc(O)c(=O)c(O)c1-c1cccc2ccccc12 [Compound 331] | 2 µM | 80.4 µM | 11 µM | 36.6 µM | 67 µM | 448 µM | – | 15.8 µM | 15.8 µM | – | > 240 µM | 17.7 µM | – | – | – | – | –
16 | CC(=O)c1c(C)cc(O)c(=O)c(O)c1-c1ccccc1 [Compound 330] | 2 µM | > 120 µM | 4.0 µM | 56.2 µM | 44 µM | 476 µM | > 120 µM | 10.4 µM | 10.4 µM | 32.7 µM | > 240 µM | 42.6 µM | – | – | – | – | –
17 | Cc1cc(O)c(=O)c(O)cc1C(=O)c1ccc(Br)cc1 [Compound 358] | – | > 120 µM | 11 µM | 12.5 µM | – | 43 µM | – | – | – | – | – | – | – | – | – | – | E. coli (MIC80, μM) [4]: 20 µM; EC50 ([8]; read-out: RVFV (EC50)): 9 µM
18 | NC(=O)c1ncn([C@@H]2O[C@H](CO)[C@@H](O)[C@H]2O)n1 [Ribavirin, reference compound] | – | – | – | – | – | – | – | – | – | – | – | – | 22 µM | – | 22 µM | > 120 µM | EC50 ([15]; Rift Valley fever virus, Vero, 18 h): 73.6 µM
19 | Cc1cc(O)c(=O)c(O)cc1C(=O)N1CCCCC1 [Compound 390] | 0.1 µM | > 120 µM | 11 µM | 29.8 µM | – | 106 µM | > 120 µM | 11.9 µM | 11.9 µM | > 120 µM | 224 µM | 9.4 µM | – | – | – | – | –
20 | Cc1cc(O)c(=O)c(O)cc1C(=O)N1CCN(C(c2ccc(F)cc2)c2ccc(F)cc2)CC1 [Compound 1017] | – | – | – | – | – | – | – | – | – | – | – | – | 3.44 µM | 6 µM (≈ 2.8 µg/mL) | 8 µM | > 120 µM | CC50 ([2]; African green monkey): 54.7 µM; IC50 [7]: 30 µM; CC50 [13]: 3.9 µM
21 | O=C(Cc1ccccc1)Sc1cccccc1=O [Compound 680] | – | – | – | – | – | – | – | – | – | 23 µM | – | – | 0.3 µM | 0.4 µM (≈ 0.103 µg/mL) | 6.3 µM | > 120 µM | CC50 ([14]; Estimated CC50): 0.9 µM; CC50 ([14]; Vero CC50): > 120 µM; EC50 [9, 20]: 31.3 µM; MIC80 [4]: 30 µM (≈ 7.69 µg/mL); MIC80 [6]: 13 µM (≈ 3.33 µg/mL); IC50 [7]: 652 µM; EC50 [8, 21]: 6.3 µM; EC50 ([10]; Zika virus, Vero C1008, 48 h): 19.5 µM; EC50 [12, 22]: 11.6 µM
22 | O=c1c(O)cccc(SCc2ccccc2)c1O [Compound 702] | – | – | – | – | – | – | – | – | – | – | – | – | 7 µM | 0.55 µM (≈ 0.143 µg/mL) | 8.8 µM | > 120 µM | CC50 ([14]; CC50 Vero): 35.6 µM; MIC80 [4]: 9 µM (≈ 2.34 µg/mL); MIC80 [6]: 13 µM (≈ 3.38 µg/mL); IC50 [7]: 34 µM
23 | Cc1cc(O)c(=O)c(O)cc1C(=O)c1ccccc1O [Compound 311] | 3.16 µM | – | 15 µM | – | 67 µM | 26 µM | – | 11.8 µM | – | – | – | – | – | – | – | – | E. coli (MIC80, μM) [4]: 30 µM
24 | Cc1cc(O)c(=O)c(O)cc1C(=O)c1ccco1 [Compound 309] | – | – | – | – | – | – | – | – | – | – | – | – | – | – | 1.6 µM | > 120 µM | CC50 ([14]; Vero CC50): > 120 µM; LACV EC50 [9]: activity against LACV; EC50 [9, 20]: 14.6 µM; CC50 [16]: 98.1 µM; EC50 [8, 21]: 1.6 µM; ZIKV EC50 [10]: not the unrelated flavivirus, Zika virus; EC50 ([10]; Zika virus, Vero C1008, 48 h): > 120 µM; EC50 [12, 22]: 5.9 µM
25 | CC[C@H](C)[C@H](NC(=O)OCC1c2ccccc2-c2ccccc21)C(=O)Sc1cccccc1=O [Compound 686] | 2.16 µM | > 120 µM | 0.85 µM | 42.6 µM | 30 µM | > 500 µM | 45.4 µM | – | 6.3 µM | > 120 µM | 67.6 µM | 7.9 µM | – | – | – | – | –
